System: chick embryos
Details: in ovo, highest concentrations tested, 50µM
Description: • 1. M. Hammerschmidt, A. Brook, A. P. McMahon, Trends Genet, 13, 14-21 (1997). • 2. C. Chiang, et al., Nature, 383,407-413 (1996). • 3. Y. Tanabe, T. M. Jessell, Science 274, 1115-1123 (1996). • 4. T. P. Yamaguchi, Curr. Opin. Genet. Dev. 7, 513-518 (1997). • 5. N. Shubin, C. Tabin, S. Carroll, Nature 388, 639-648 (1997). • 6. A. E. Oro, et al., Science 276, 817-821 (1997). • 7. M. M. Cohen, K. K. Sulik, J. Craniofac. Genet. Deve. Biol. 12, 196-244 (1992). • 8. E. Belloni, et al., Nature Genet. 14, 353-356 (1996). • 9. E. Roessler, et al., Nature Genet. 14, 357-360 (1996). • 10. J. A. Porter, et al., Nature 374, 363-366 (1995). • 11. J. A. Porter, K. E. Young, P. A. Beacy, Science 274, 255-259 (1996b). • 12. J. J. Lee, et al., Science 266, 1528-1537 (1994). • 13. J. A. Porter, et al., Cell 86, 21-34 (1996a). • 14. C. Roux, Arch. Franc. Pediatr. 21, 451-464 (1964). • 15. C. Roux, C. R. Soc. Biol. 160, 1353-1357 (1966). • 16. D. B. Dehart, L. Lanoue, G. S. Tinit, K. K. Sulik, Am J. Med. Genet. 68, 328-337 (1997). • 17. M. Kraml, J. F. Bagli, D. Dvornik, Biochem. and Biophysical Res. Com. 15, 455-457 (1964). • 18. J. Avigan, D. Steinberg, H. E. Vroman, M. J. Thompson, E. Mosettig, J. Biol. Chem 235, 3123-3126 (1960). • 19. R. B. Clayton, A. N. Nelson, I. D. Frantz Jr., J. Lipid Res. 4, 166-178 (1963). • 20. J. Aufenanger, J. Pill, K. Stegmeier, F. H. Schmidt, Horm. Metabol. Res. 17, 612-613 (1986). • 21. […] G. Popjak, A. Meenean, E. J. Parish, W. D. Nes, J. Biol. Chem 264,6230-6238 (1989). • 23. H. Yoshikawa, Brain Deve. 13, 115-120 (1991). • 24. R. I. Kelley, et al., Am. J. Of Med. Gen. 66, 478-484 (1996). • 25. G. S. Tint, et al., New England Journal of Medicine 330, 107-113 (1994). • 26. T.E. Willnow, et al., Proc. Natl. Acad. Sci USA 93, 8460-8464 (1996). • 27. S. Stefansson, D. A. Chappell, K. M. Argraves, D. K. Strickland, W. S. Argraves, J. Biol. Chem. 270, 19417-19421 (1995). • 28. W. Binns, L. F. James, J. L. Shupe, G. Everett, Am. J. Vet. Res. 24, 1164-1174 (1963). • 29. R. F. Keeler, W. Binns, Teratology 1, 5-10 (1968). • 30. P. A. Beachy, et al., CSH Symp. Quant. Biol. 62, in press (1997). • 31. […]

Q: Which “embryos displayed normal morphology” value does the source give for `CC1=C2C[C@H]3[C@@H](CC=C4C[C@@H](O)CC[C@@]43C)[C@@H]2CC[C@]12O[C@@H]1C[C@H](C)CN[C@H]1[C@H]2C` [Cyclopamine, cyclopamine] here?
A: 2/10

Reference: patent publication EP1067939B1, “USE OF STEROIDAL ALKALOID DERIVATIVES AS INHIBITORS OF HEDGEHOG PROTEIN SIGNALING PATHWAYS” (The Johns Hopkins University, priority 1998, dated 1999)
